Converted amounts (≈) assume the structure as drawn. “Also recorded” adds a separate entry of the source. Read-outs that look alike come from different tables or passages of the source.

Data set [1] relates to HCV IRES. Set-up: method as in PMID 10866369. The settings on record: previously reported, Fig. 1; cited from earlier work.
For data set [2], the system named is HCV IRES subdomain IIa. The arrangement: method as in PMID 20564282. The settings on record: previously reported, Fig. 1; read-out: EC50 (2-AP assay); cited from earlier work.
In data set [3] the test system is HCV IRES. Set-up: method as in PMID 15380215. The settings on record: previously reported, Fig. 1; read-out: IC50 (Luciferase reporter gene assay); cited from earlier work. Background: A reporter such as luciferase makes a cellular process visible.
The subject of data set [4] is HCV IRES subdomain IIa. The data set is described as follows: FRET assay monitoring ligand-induced conformational change of Cy3/Cy5-labelled HCV IRES subdomain IIa. The class given is biochemical, hepatitis C virus. Particulars: 100 nM Cy3/Cy5-labelled RNA, 10 mM HEPES pH 7.0, 2 mM MgCl2, 2% DMSO; ≥ = lower limit. The method, then:
For the FRET assay, a two stranded HCV IRES subdomain IIa carrying a 5′-Cy3-label on one and 5′-Cy5-label on the other strand (Cy3-[…], Cy5-[…], Biomers.net GmbH) was used as described previously.[22,53] All samples containing labelled RNA were treated under light protection. FRET experiments were performed on a Tecan Spark 10 M plate reader (excitation/emission: 480/670 nm) using black half area 96 well microplates (Greiner Bio-One), based on a protocol by Zhou et al.[53] The 5′-Cy3- and 5′-Cy5-labelled single strands were annealed by heating to 75 °C in FRET buffer (10 mM HEPES pH 7.0, 2 mM MgCl2) and cooled down to room temperature for at least 20 min. The 5′-Cy3/Cy5-labelled RNA was diluted to 100 nM in FRET buffer and supplemented with compounds 8–28 in appropriate concentrations. Compounds 4 and 5 were used as positive controls. For the initial screening, compounds were added in final concentrations of 1000, 100, 10 and 0.001 μM (Fig. S4 ^†). If a concentration dependent reduction of the FRET signal (Cy5-emission) was observed, EC50-values were determined using ligand concentrations from 1 mM to 100 nM in 3.16-fold (semi-logarithmic) dilution series. For those compounds, the Cy3 emission was measured at 535 nm to confirm a conformational change dependent reduction in the Cy5 emission signal via Cy3 emission increase (Fig. S7 ^†). For each experiment, one DMSO negative control was carried out. The final DMSO concentration was always 2%. Excitation and emission spectra were recorded for the Cy3/Cy5-labelled RNA (100 nM) in FRET buffer to confirm excitation (Cy3) and emission (Cy5) wavelength as well as for each compound (1 μM) in FRET buffer to exclude any interference with the cyanine dyes. All measurements were performed at least as triplicates for screening and EC50-determination.
FRET experiments were analyzed using GraphPad Prism (version 8.0.1., GraphPad Software, Boston, Massachusetts USA, https://www.graphpad.com).

Data set [5] concerns the target HCV IRES subdomain IIa. The format is binding, hepatitis C virus. Particulars: 30 nM Cy5-labelled RNA, 10 mM HEPES pH 7.0, 2 mM MgCl2, 2% DMSO; ≥ = no saturation; n.b. no binding observed; read-out: MST KD. The method, then:
For the MST assay, the same sequence of the two stranded HCV IRES subdomain IIa as for the FRET assay was used. One strand was 5′-Cy5-labelled and the other strand was unmodified ([…], Cy5-[…], Biomers.net GmbH). All samples containing labelled RNA were treated under light protection. MST experiments were performed on a Monolith NT.115 from NanoTemper Technologies using standard uncoated capillaries. The strands were annealed by heating to 75 °C in MST buffer (10 mM HEPES pH 7.0, 2 mM MgCl2) and cooled down to room temperature for at least 20 min. The 5′-Cy5-labelled HCV IRES domain IIa RNA was diluted to 30 nM in MST buffer and supplemented with compounds 8–25 in appropriate concentrations. Compounds 4 and 5 were used as positive controls. For the initial screening, compounds were added to final concentrations of 1000 (or 316 if limited by solubility), 100, 10 and 0.001 μM (Fig. S5 ^†). If a concentration-dependent shift of thermophoresis was observed, KD-values were determined using concentrations ranging from 1 mM (if permitted by solubility, otherwise starting from 316 or 100 μM) to 0.01 μM in a 3.16-fold (semi-logarithmic) dilution series. For each experiment, one DMSO negative control was carried out. Final DMSO concentration was always 2%.
(§1) Off-target counter screens by MST were performed as described previously.[31,84] Briefly, the 5′-Cy5-labelled Tte preQ1-Riboswitch aptamer domain (Biomers.net GmbH) was heated to 75 °C for 5 min, cooled down to room temperature for at least 20 min and then diluted to 20 nM in MST buffer (50 mM Tris-HCl pH 7.5, 100 mM KCl, 25 mM MgCl2) and supplemented with compounds 4, 5, 8–13, 18, 21, 22 and 26 to final concentrations of 1000, 100, 10 and 0.001 μM. PreQ1 was used as a positive control. The 5′-Cy5-labelled B. angulatum SAM VI-Riboswitch aptamer domain (Eurofins Genomics GmbH) was heated to 75 °C for 5 min, cooled down to room temperature for at least 20 min and then diluted to 20 nM in MST buffer (50 mM Tris-HCl pH 7.5, 100 mM KCl, 25 mM MgCl2) and supplemented with compounds 5, 9 and 28 to final concentrations of 1000, 100, 10 and 0.001 μM. SAM was used as a positive control. For each experiment, one DMSO negative control was carried out. The final DMSO concentration was 2%. All measurements were performed at least as duplicates for pre-screening and triplicates for KD-determination. MST measurements were analyzed from signals after 18 s laser on-time using the MO.Affinity Analysis software (version 2.3) and exported for statistical analysis and plotting in GraphPad Prism (version 8.0.1., GraphPad Software, Boston, Massachusetts USA, https://www.graphpad.com).

Data set [6] has as its system Tte preQ1-Riboswitch aptamer domain. Nature of the data set: MST off-target counter screen, preQ1-riboswitch aptamer domain. The class given is binding, Thermoanaerobacter tengcongensis. Particulars: 1000, 100, 10 and 0.001 μM. The method, then:
as §1

Data set [7] has as its system SAM VI-Riboswitch aptamer domain. Nature of the data set: MST off-target counter screen, SAM VI-riboswitch aptamer domain. The format is binding, B. angulatum. The settings on record: 1000, 100, 10 and 0.001 μM. The method, then: as §1
In data set [8] the target is HCV IRES subdomain IIa. The arrangement: method as in PMID 16279767. The settings on record: previously reported; read-out: KD (MS assay); cited from earlier work.
Data set [9] deals with HCV IRES subdomain IIa. Set-up: method as in PMID 16279767, PMID 24930829, PMID 27775338. The settings on record: previously reported, Fig. 1; read-out: EC50 (FRET assay); cited from earlier work.
For another data set, the system named is cellular replicon. Set-up: method as in PMID 16279767. The settings on record: cited from earlier work.

On to `Cc1cc2nc3ccc(N(C)C)cc3nc2cc1N` [Compound 1], for which, in the data set with HCV IRES [1], the “IC50 (Fluci reporter gene assay)” value was 0.02 µg/mL (≈ 0.0793 µM).

A word on the EC50: it is the concentration at which the effect is half-maximal. Consider `CC(=O)c1ccc(C(=O)N[C@@H](CCCCN)C(=O)N2C[C@H](N)C[C@H](N)C2)cc1` [Compound 3], for which the EC50 with HCV IRES subdomain IIa [2] is 270 µM.

As usually defined, the IC50 is the concentration needed to halve the response being measured. `Cc1nc(/N=C(\N)NCCc2ccccc2)nc(C)c1OCCCN(C)C` [Compound 2]: the IC50 in the data set with HCV IRES [3] is 2.1 µM.

A word on the Kd: it is the constant that tells how readily two partners part at equilibrium. On to `CN(C)CCCn1c(N)nc2ccc3c(c21)CC(CN(C)C)CO3` (centres unmarked) [Compound 5], for which the EC50 was 4.9 ± 2.6 µM in the data set on HCV IRES subdomain IIa [4] and 3.4 µM in the data set on HCV IRES subdomain IIa [9]. Besides, the results for the Kd on HCV IRES subdomain IIa [5] and on HCV IRES subdomain IIa [8] were 5.2 ± 0.8 µM and 0.86 µM, respectively. For the same molecule, in [6], the “preQ1-riboswitch binding / selectivity (MST-shift), in words” value is “Weak preQ1-riboswitch binding; also recorded: binding to the preQ1-riboswitch at very high concentrations”. In data set [7], the “SAM-VI-riboswitch binding (MST-shift), in words” value was “no binding; also recorded: no MST shift”. For the same molecule, the “antiviral activity in cellular replicon assay, in words” value in the data set with cellular replicon is on record as “antiviral activity”. In addition, the “toxicity in cellular replicon assay, in words” value in the data set on cellular replicon was “minimal toxicity”.
